From patent US11370798B2 (Vertex Pharmaceuticals Incorporated, priority 2012, dated 2022)

System: HCT116 colorectal cancer cells
Assay: Cisplatin sensitization assay (96 h cell viability MTS);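 also: Test-compound concentration that lowers the Cisplatin IC50 by a set fold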
Type: cell-based
Conditions: compound and Cisplatin added simultaneously, Cisplatin sensitization value
Method in brief: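 Viability read by MTS (1 h at 37° C) after 96 h co-exposure at 37° C, 5% CO2. Test compound and cisplatin were dosed simultaneously in a full concentration matrix, each 2-fold serially diluted from 10 μM final; sensitization values binned in μM.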

Row | SMILES | Cisplatin Sensitization Assay
1 | Cc1cncc(NC(=O)c2c(N)nn3cc(F)cnc23)c1-n1nccc1C [I-N-237] | + (Cisplatin sensitization value>0.2 μM but <5 μM)
2 | Nc1nn2cc(F)cnc2c1C(=O)Nc1cnccc1N1CCN2C(=O)OCC2C1 (stereo not shown) [I-N-238, 2-amino-6-fluoro-N-(4-(3-oxotetrahydro-1H-oxazolo[3,4-a]pyrazin-7(3H)-yl)pyridin-3-yl)pyrazolo[1,5-a]pyrimidine-3-carboxamide] | ++ (Cisplatin sensitization value>0.02 μM but <0.2 μM)
3 | Nc1nn2cc(F)cnc2c1C(=O)Nc1cncc(F)c1N1CCC2(CC1)COC2 [I-N-239, 2-amino-6-fluoro-N-(5-fluoro-4-(2-oxa-7-azaspiro[3.5]nonan-7-yl)pyridin-3-yl)pyrazolo[1,5-a]pyrimidine-3-carboxamide] | +++ (Cisplatin sensitization value of <0.02 μM)
4 | CN1CCN2CCN(c3c(F)cncc3NC(=O)c3c(N)nn4cc(F)cnc34)CC2C1=O (stereo not shown) [I-N-240, 2-amino-6-fluoro-N-(5-fluoro-4-(8-methyl-9-oxohexahydro-1H-pyrazino[1,2-a]pyrazin-2(6H)-yl)pyridin-3-yl)pyrazolo[1,5-a]pyrimidine-3-carboxamide] | ++ (Cisplatin sensitization value>0.02 μM but <0.2 μM)
5 | Nc1nn2cc(F)cnc2c1C(=O)Nc1cnccc1N1CCC(c2ncon2)CC1 [I-N-241, N-(4-(4-(1,2,4-oxadiazol-3-yl)piperidin-1-yl)pyridin-3-yl)-2-amino-6-fluoropyrazolo[1,5-a]pyrimidine-3-carboxamide] | +++ (Cisplatin sensitization value of <0.02 μM)
6 | Cc1ncnn1-c1c(F)cncc1NC(=O)c1c(N)nn2cc(F)cnc12 [I-N-242, 2-amino-6-fluoro-N-(5-fluoro-4-(5-methyl-1H-1,2,4-triazol-1-yl)pyridin-3-yl)pyrazolo[1,5-a]pyrimidine-3-carboxamide] | + (Cisplatin sensitization value>0.2 μM but <5 μM)
7 | CC1(S(C)(=O)=O)CCN(c2ccncc2NC(=O)c2c(N)nn3cc(F)cnc23)CC1 [I-N-243, 2-amino-6-fluoro-N-(4-(4-methyl-4-(methylsulfonyl)piperidin-1-yl)pyridin-3-yl)pyrazolo[1,5-a]pyrimidine-3-carboxamide] | +++ (Cisplatin sensitization value of <0.02 μM)
8 | Nc1nn2cc(F)cnc2c1C(=O)Nc1cnccc1N1CCN2C(=O)CCCC2C1 (stereo not shown) [I-N-244, 2-amino-6-fluoro-N-(4-(6-oxohexahydro-1H-pyrido[1,2-a]pyrazin-2(6H)-yl)pyridin-3-yl)pyrazolo[1,5-a]pyrimidine-3-carboxamide] | +++ (Cisplatin sensitization value of <0.02 μM)
9 | CC(C)N1CCN2CCN(c3ccncc3NC(=O)c3c(N)nn4cc(F)cnc34)CC2C1=O (stereo not shown) [I-N-245, 2-amino-6-fluoro-N-(4-(8-isopropyl-9-oxohexahydro-1H-pyrazino[1,2-a]pyrazin-2(6H)-yl)pyridin-3-yl)pyrazolo[1,5-a]pyrimidine-3-carboxamide] | ++ (Cisplatin sensitization value>0.02 μM but <0.2 μM)
10 | Nc1nn2cc(F)cnc2c1C(=O)Nc1cncc(F)c1N1CCCC1 [I-N-246, 2-amino-6-fluoro-N-(5-fluoro-4-(pyrrolidin-1-yl)pyridin-3-yl)pyrazolo[1,5-a]pyrimidine-3-carboxamide] | ++ (Cisplatin sensitization value>0.02 μM but <0.2 μM)
11 | Nc1nn2cc(F)cnc2c1C(=O)Nc1cnccc1N1CCN2[C@@H](CCS2(=O)=O)C1 [I-N-247, (S)-2-amino-N-(4-(1,1-dioxidotetrahydro-2H-isothiazolo[2,3-a]pyrazin-5(3H)-yl)pyridin-3-yl)-6-fluoropyrazolo[1,5-a]pyrimidine-3-carboxamide] | +++ (Cisplatin sensitization value of <0.02 μM)
12 | Nc1nn2cc(F)cnc2c1C(=O)Nc1cncc(F)c1N1CCN2C(=O)OC[C@@H]2C1 [I-N-248, (S)-2-amino-6-fluoro-N-(5-fluoro-4-(3-oxotetrahydro-1H-oxazolo[3,4-a]pyrazin-7(3H)-yl)pyridin-3-yl)pyrazolo[1,5-a]pyrimidine-3-carboxamide] | ++ (Cisplatin sensitization value>0.02 μM but <0.2 μM)
13 | Nc1nn2cc(F)cnc2c1C(=O)Nc1cnccc1N1CCN(C(=O)C2COC2)CC1 [I-N-249] | +++ (Cisplatin sensitization value of <0.02 μM)
14 | Nc1nn2cc(F)cnc2c1C(=O)Nc1cncc(F)c1N1CCS(=O)(=O)CC1 [I-N-250, 2-amino-N-(4-(1,1-dioxidothiomorpholino)-5-fluoropyridin-3-yl)-6-fluoropyrazolo[1,5-a]pyrimidine-3-carboxamide] | ++ (Cisplatin sensitization value>0.02 μM but <0.2 μM)
15 | CC(=O)N1CC2(CCN(c3ccncc3NC(=O)c3c(N)nn4cc(F)cnc34)CC2)C1 [I-N-251, N-(4-(2-acetyl-2,7-diazaspiro[3.5]nonan-7-yl)pyridin-3-yl)-2-amino-6-fluoropyrazolo[1,5-a]pyrimidine-3-carboxamide] | +++ (Cisplatin sensitization value of <0.02 μM)
16 | CC1(C)CN(c2ccncc2NC(=O)c2c(N)nn3cc(F)cnc23)CCS1(=O)=O [I-N-252, 2-amino-N-(4-(2,2-dimethyl-1,1-dioxidothiomorpholino)pyridin-3-yl)-6-fluoropyrazolo[1,5-a]pyrimidine-3-carboxamide] | +++ (Cisplatin sensitization value of <0.02 μM)
17 | Nc1nn2cc(F)cnc2c1C(=O)Nc1cnccc1N1CCCC2(COC2)C1 [I-N-253, N-(4-(2-oxa-6-azaspiro[3.5]nonan-6-yl)pyridin-3-yl)-2-amino-6-fluoropyrazolo[1,5-a]pyrimidine-3-carboxamide] | +++ (Cisplatin sensitization value of <0.02 μM)
18 | Nc1nn2cc(F)cnc2c1C(=O)Nc1cnccc1N1CCC2(CCNC2)CC1 [I-N-255, N-(4-(2,8-diazaspiro[4.5]decan-8-yl)pyridin-3-yl)-2-amino-6-fluoropyrazolo[1,5-a]pyrimidine-3-carboxamide] | ++ (Cisplatin sensitization value>0.02 μM but <0.2 μM)
19 | Cc1nnc(N2CCN(c3ccncc3NC(=O)c3c(N)nn4cc(F)cnc34)CC2)o1 [I-N-256, 2-amino-6-fluoro-N-(4-(4-(5-methyl-1,3,4-oxadiazol-2-yl)piperazin-1-yl)pyridin-3-yl)pyrazolo[1,5-a]pyrimidine-3-carboxamide] | ++ (Cisplatin sensitization value>0.02 μM but <0.2 μM)
20 | CC(=O)N1CCC2(CCN(c3ccncc3NC(=O)c3c(N)nn4cc(F)cnc34)CC2)C1 [I-N-257, N-(4-(2-acetyl-2,8-diazaspiro[4.5]decan-8-yl)pyridin-3-yl)-2-amino-6-fluoropyrazolo[1,5-a]pyrimidine-3-carboxamide] | +++ (Cisplatin sensitization value of <0.02 μM)
21 | Nc1nn2cc(F)cnc2c1C(=O)Nc1cnccc1N1CCN2C(=O)CC[C@@H]2C1 [I-N-258, (R)-2-amino-6-fluoro-N-(4-(6-oxohexahydropyrrolo[1,2-a]pyrazin-2(1H)-yl)pyridin-3-yl)pyrazolo[1,5-a]pyrimidine-3-carboxamide] | ++ (Cisplatin sensitization value>0.02 μM but <0.2 μM)
22 | Cn1ccc2cncc(NC(=O)c3c(N)nn4cc(F)cnc34)c21 [I-N-259, 2-amino-6-fluoro-N-(1-methyl-1H-pyrrolo[3,2-c]pyridin-7-yl)pyrazolo[1,5-a]pyrimidine-3-carboxamide] | + (Cisplatin sensitization value>0.2 μM but <5 μM)
